From US9908890B2, “Selective inhibitors of constitutive androstane receptor” (ST. JUDE CHILDREN'S RESEARCH HOSPITAL, priority 2014, dated 2018)

Experiments:
[1] = system: CAR- and PXR-regulated genes in human primary hepatocytes; test: Quantitative real-time PCR in human primary hepatocytes; assay type: cell-based; details: three donors, 1 μM CITCO or 5 μM PK11195, 48 h
Description: RNA was extracted, cDNA synthesized, and gene expression analyzed by performing real-time PCR using Taqman probes for each gene. […] LS174T cells were maintained in 10% charcoal-dextran-treated, FBS media for 4 days before the experiment. […] Briefly, human primary hepatocytes (HPH) were maintained in William's E media with supplements for 4 days before treatment. […] RNA extracted was used for cDNA synthesis and measured by performing quantitative real-time PCR assays with Taqman probes.
Briefly, human primary hepatocytes (donor 5) were maintained in William's E Media with supplements for 4 days prior to treatment. […] RNA extracted was used for cDNA synthesis and measured by quantitative real-time PCR with Taqman probes. CYP2B6 and CYP3A4 mRNA were normalized to the internal control 18S and DMSO-treated samples were set to 1.
Cell lines or human hepatocytes were treated with chemicals for 24-48 hours before RNA was extracted and purified by using the Maxwell 16LEV simplyRNA tissue kit (Promega). Then, cDNA was prepared from 2 μg of RNA, and diluted cDNA was used to perform quantitative RT-PCR assays by using TaqMan probes (ABI; 7500 Thermocycler) with 18S as the internal standard.

[2] = system: CAR binding to CYP2B6 and CYP3A4 promoter response elements; test: Chromatin immunoprecipitation (CAR / RNA polymerase II occupancy at promoters); assay type: cell-based, human; details: human primary hepatocytes, 3 donors, overnight, 1 μM CITCO or 5 μM CINPA1
Procedure: FIG. 8B and FIG. 8C show the fold enrichment of CAR at CYP2B6-dNR3 and CYP2B6-PBREM sites, respectively, in the promoter region following the indicated treatment in human primary hepatocytes. […] Protein complexes were cross-linked and chromatin was immunoprecipitated by using anti-CAR antibody or control IgG. CAR occupancy at two separate CYP2B6 promoter regions (dNR3 and PBREM) was determined by performing quantitative RT-PCR assays. Fold-enrichment normalized to IgG control was plotted. Data represent the mean±SD of 3 experiments. *, p<0.01 comparing CITCO treatment to DMSO treatment.
FIG. 9A, FIG. 9B, and FIG. 9C show the fold enrichment of CAR at CYP2B6-dNR3, CYP3A4-XREM, and CYP2B6-dNR3 sites, respectively, in the promoter region following the indicated treatment in human primary hepatocytes or HepG2-hCAR1 cells, as indicated in the figures. Briefly, in FIG. 9A and FIG. […] 9C HepG2-hCAR1 stable cells were treated for […] with DMSO, 1 μM CITCO, 5 μM CINPA1, or 1 μM CITCO+5 μM CINPA1. Protein complexes were cross-linked and chromatin was immunoprecipitated by using anti-CAR antibody, anti-RNA polymerase II (RPol) antibody, or control IgG. CAR or RPol occupancy at the CYP2B6-dNR3 region and CYP3A4-XREM region was determined by performing quantitative RT-PCR assays. Fold-enrichment was normalized to IgG control. Data represent the mean±SD of 3 experiments. *, p<0.001 and #, p<0.01 comparing CITCO to DMSO samples. **, p<0.001 and ##, p<0.01 comparing CITCO+CINPA1 to CITCO samples.
ChIP was performed as described previously (Cherian, M. T., et al. (2012) J. Biol. Chem. 287, 23368-23380). Briefly, human hepatocytes in 6-well plates were maintained for 3-4 days in Williams E medium containing Primary Hepatocyte Maintenance Supplement (Life Technologies), with daily media changes. Nine wells were used for each treatment group. […] The HepG2-hCAR1 stable cells in FIG. 9 were treated with DMSO, 1 μM CITCO, 5 μM CINPA1, or 1 μM CITCO+5 μM CINPA1 for […]. In FIG. 9, the hepatocytes from donor 7 were treated with DMSO, 0.1 μM CITCO, 1 μM CINPA1, or 0.1 μM CITCO+1 μM CINPA1 for 45 min. Proteins were cross-linked with 1% formaldehyde for 10 min. Cell extracts were digested for 10 min with 50 units of micrococcal nuclease (New England Biolabs) at 37° C. and further sonicated to yield sheared DNA fragments having an average length of 200-1000 base pairs. The sonicated samples were pelleted by centrifugation, and the supernatant was diluted 3- to 5-fold with ChIP dilution buffer (0.01% SDS, 1.1% Triton X-100, 1.2 mM EDTA, 16.7 mM Tris-HCl, pH 8.1, 167 mM NaCl, and protease inhibitor cocktail). […] Quantitative RT-PCR assays were performed to determine the change in CAR occupancy at various sites of CAR binding. […]

Clc1ccc(-c2nc3sccn3c2/C=N/OCc2ccc(Cl)c(Cl)c2)cc1 [CITCO, 6-(4-chlorophenyl)imidazo [2,1-b][1,3]thiazole-5-carbaldehyde O-(3,4-dichlorobenzyl) oxime, reference compound]
CYP2B6 mRNA level, compound alone [1]: induced CYP2B6 levels
CAR recruitment to XREM (dNR3) of the CYP2B6 gene [2]: enhances recruitment of CAR
